Experimental data reported in paper PMC4912218, “Targeted metabolomics of Gammarus pulex following controlled exposures to selected pharmaceuticals in water” (The Science of the Total Environment, 2016).

System: Gammarus pulex
Experiment: Targeted metabolite profiling (LC-HRMS) of G. pulex after exposure at NOAEL and LOAEL
Format: in vivo
Method: Approximately 100 specimens were introduced in a tank containing 1 L of AFW (control), 1 L of AFW spiked with C1 and 1 L of AFW with C2. At three different times (2, 6 and 24 h), 4 replicates of live G. pulex (a pool of 6–7 animals for each replicate) were collected, frozen on dry ice and then stored at − 80 °C before metabolite profiling was performed.
Quantification of pharmaceutical concentrations in G. pulex at the 24 h exposure interval was performed. Separate exposures were set up in triplicate in beakers containing 200 mL of exposure solution (AFW spiked with the respective C1 pharmaceutical dose) and 20 organisms. At 24 h, animals were immediately rinsed with ultra-pure water and then frozen at − 20 °C for 24 h. […] Prior to extraction, frozen G. pulex samples were lyophilised at − 50 °C under vacuum for 48 h and milled in an agate mortar to a fine powder. For each analysis, 20 mg of a lyophilised composite sample were transferred to 2 mL polypropylene tubes (Eppendorf®, Hamburg, Germany), for solid-liquid extraction (SLE). […] Then, samples were shaken for 25 min on a vibration plate (IKA® KS 260 basic) and centrifuged at 14,000 rpm for 25 min at 0 °C. Finally, the supernatant was transferred to a chromatographic vial by using a […] syringe filter (Whatman, GE Healthcare Life Sciences, Buckinghamshire, UK). All samples were stored at − 80 °C until LC-HRMS analysis.
Briefly, 50 mg of lyophilised G. pulex were extracted in 5 mL of acetonitrile and pre-concentrated on Oasis HLB SPE cartridges (6 mL, 200 mg sorbent). The extract was eluted, dried-down and reconstituted in starting LC mobile phase. […] Organic acids, nucleosides, nucleotides, sugars and AAs were measured using LC–HRMS. An Exactive™ mass spectrometer equipped with heated electrospray ionization (H-ESI) source was used (Thermo Fisher Scientific, Bremen, Germany). The system was equipped with a HTC PAL autosampler and a Surveyor MS Plus pump. A TSK Gel-Amide 80 column (2 × 250 mm, 5 μm) for analyte separation was purchased from Sigma Aldrich. Mobile phases were binary mixtures of acetonitrile (A) and 5 mM ammonium acetate (pH 5) in HPLC-grade water (B). […] The flow rate was set at 150 μL min^− 1 and the injection volume was 5 μL. […] Full scan acquisition over a mass range of 80–800 Da was performed at 70,000 full width at half maximum (FWHM) and spray voltage at 3.00 kV, capillary voltage at 30 V, skimmer voltage at 28 V and tube lens voltage at 130 V were used. A sheath gas flow rate of 45 arbitrary units (au), an auxiliary gas flow rate of 10 au and a capillary temperature at 300 °C were selected.
Here, pharmaceutical residue quantification in exposed G. pulex was performed by a 3-point matrix-matched calibration curve. […] The algal amino acid mixture-^13C,^15N (see Table 1) was used as internal standard (IS) for extraction and analytical control. L-ornithine hydrochloride, inosine, thymidine, taurine, 1.7-dimethylxanthine and (−)-riboflavin were quantified using either ^13C,^15N-proline or ^13C,^15N-tyrosine as the internal standard. The remaining 15 compounds were quantified using external calibration and the target compound itself was used as external standard. […] The method detection limit (MDL) was calculated following the same procedure, using spiked lyophilised G. pulex samples at a concentration of 1 μg g^− 1. Intra-assay variation was assessed using five consecutive injections of 5 ng μL^− 1 standard solution, and inter-assay variation was determined by measuring the same standard solution on four different days. […] Recovery studies were performed in triplicate, using lyophilised G. pulex samples spiked at 1 μg g^− 1 with the metabolites mixture and the algal amino acid mixture-^13C, ^15N.

Oc1cc(Cl)ccc1Oc1ccc(Cl)cc1Cl [Triclosan]
(-)-Riboflavin concentration in G. pulex (2h, C1= 0.1 mg/L): 2.6 ± 0.7 µg/g
ADP concentration in G. pulex (2h, C1= 0.1 mg/L): 28.6 ± 2 µg/g
Cytidine concentration in G. pulex (2h, C1= 0.1 mg/L): 34 ± 22 µg/g
Hypoxanthine concentration in G. pulex (2h, C1= 0.1 mg/L): 123 ± 4 µg/g
Inosine concentration in G. pulex (2h, C1= 0.1 mg/L): 14808 ± 1341 µg/g
L-2-amino-n-butyric concentration in G. pulex (2h, C1= 0.1 mg/L): 15.1 ± 3 µg/g
L-(-)-Proline concentration in G. pulex (2h, C1= 0.1 mg/L): 499 ± 11 µg/g
L-Alanine concentration in G. pulex (2h, C1= 0.1 mg/L): 999 ± 2 µg/g
L-Citrulline concentration in G. pulex (2h, C1= 0.1 mg/L): 9.7 ± 0.4 µg/g
L-Isoleucine concentration in G. pulex (2h, C1= 0.1 mg/L): 2067 ± 110 µg/g
L-Leucine concentration in G. pulex (2h, C1= 0.1 mg/L): 443 ± 1 µg/g
L-Methionine concentration in G. pulex (2h, C1= 0.1 mg/L): 5.4 ± 0.6 µg/g
L-Phenylalanine concentration in G. pulex (2h, C1= 0.1 mg/L): 340 ± 28 µg/g
L-Serine concentration in G. pulex (2h, C1= 0.1 mg/L): 158 ± 7 µg/g
L-Threonine concentration in G. pulex (2h, C1= 0.1 mg/L): 740 ± 6 µg/g
L-Tryptophan concentration in G. pulex (2h, C1= 0.1 mg/L): 74 ± 20 µg/g
L-Tyrosine concentration in G. pulex (2h, C1= 0.1 mg/L): 247 ± 8 µg/g
L-Valine concentration in G. pulex (2h, C1= 0.1 mg/L): 500 ± 1 µg/g
L-aspartic acid concentration in G. pulex (2h, C1= 0.1 mg/L): 62.6 ± 3 µg/g
NADH concentration in G. pulex (2h, C1= 0.1 mg/L): 7.11 ± 0.1 µg/g
Taurine concentration in G. pulex (2h, C1= 0.1 mg/L): 7300 ± 168 µg/g
Thymidine concentration in G. pulex (2h, C1= 0.1 mg/L): 2918 ± 603 µg/g
Trehalose concentration in G. pulex (2h, C1= 0.1 mg/L): 197 ± 1 µg/g
Uridine concentration in G. pulex (2h, C1= 0.1 mg/L): 699 ± 21 µg/g
(-)-Riboflavin concentration in G. pulex (2h, C2= 0.3 mg/L): 2.4 ± 0.5 µg/g
ADP concentration in G. pulex (2h, C2= 0.3 mg/L): 30.5 ± 0.2 µg/g
Cytidine concentration in G. pulex (2h, C2= 0.3 mg/L): 15 ± 6 µg/g
Hypoxanthine concentration in G. pulex (2h, C2= 0.3 mg/L): 74 ± 22 µg/g
Inosine concentration in G. pulex (2h, C2= 0.3 mg/L): 20640 ± 179 µg/g
L-2-amino-n-butyric concentration in G. pulex (2h, C2= 0.3 mg/L): 17.0 ± 2 µg/g
L-(-)-Proline concentration in G. pulex (2h, C2= 0.3 mg/L): 313 ± 1 µg/g
L-Alanine concentration in G. pulex (2h, C2= 0.3 mg/L): 827 ± 10 µg/g
L-Citrulline concentration in G. pulex (2h, C2= 0.3 mg/L): 14.6 ± 0.4 µg/g
L-Isoleucine concentration in G. pulex (2h, C2= 0.3 mg/L): 1140 ± 38 µg/g
L-Leucine concentration in G. pulex (2h, C2= 0.3 mg/L): 361 ± 17 µg/g
L-Methionine concentration in G. pulex (2h, C2= 0.3 mg/L): 3.8 ± 0.6 µg/g
L-Phenylalanine concentration in G. pulex (2h, C2= 0.3 mg/L): 200 ± 15 µg/g
L-Serine concentration in G. pulex (2h, C2= 0.3 mg/L): 158 ± 7 µg/g
L-Threonine concentration in G. pulex (2h, C2= 0.3 mg/L): 530 ± 7 µg/g
L-Tryptophan concentration in G. pulex (2h, C2= 0.3 mg/L): 142 ± 7 µg/g
L-Tyrosine concentration in G. pulex (2h, C2= 0.3 mg/L): 216 ± 5 µg/g
L-Valine concentration in G. pulex (2h, C2= 0.3 mg/L): 268 ± 1 µg/g
L-aspartic acid concentration in G. pulex (2h, C2= 0.3 mg/L): 60.5 ± 3 µg/g
NADH concentration in G. pulex (2h, C2= 0.3 mg/L): 9.3 ± 0.2 µg/g
Taurine concentration in G. pulex (2h, C2= 0.3 mg/L): 7645 ± 212 µg/g
Thymidine concentration in G. pulex (2h, C2= 0.3 mg/L): 639 ± 140 µg/g
Trehalose concentration in G. pulex (2h, C2= 0.3 mg/L): 272 ± 10 µg/g
Uridine concentration in G. pulex (2h, C2= 0.3 mg/L): 506 ± 66 µg/g
(-)-Riboflavin concentration in G. pulex (6h, C1= 0.1 mg/L): 3.4 ± 3 µg/g
ADP concentration in G. pulex (6h, C1= 0.1 mg/L): 18.6 ± 3 µg/g
Cytidine concentration in G. pulex (6h, C1= 0.1 mg/L): 66 ± 21 µg/g
Hypoxanthine concentration in G. pulex (6h, C1= 0.1 mg/L): 154 ± 27 µg/g
Inosine concentration in G. pulex (6h, C1= 0.1 mg/L): 18116 ± 26 µg/g
L-2-amino-n-butyric concentration in G. pulex (6h, C1= 0.1 mg/L): 21.1 ± 4 µg/g
L-(-)-Proline concentration in G. pulex (6h, C1= 0.1 mg/L): 462 ± 5 µg/g
L-Alanine concentration in G. pulex (6h, C1= 0.1 mg/L): 1119 ± 48 µg/g
L-Citrulline concentration in G. pulex (6h, C1= 0.1 mg/L): 9.0 ± 0.9 µg/g
L-Isoleucine concentration in G. pulex (6h, C1= 0.1 mg/L): 2685 ± 88 µg/g
L-Leucine concentration in G. pulex (6h, C1= 0.1 mg/L): 459 ± 4 µg/g
L-Methionine concentration in G. pulex (6h, C1= 0.1 mg/L): 5.0 ± 0.5 µg/g
L-Phenylalanine concentration in G. pulex (6h, C1= 0.1 mg/L): 417 ± 5 µg/g
L-Serine concentration in G. pulex (6h, C1= 0.1 mg/L): 179 ± 13 µg/g
L-Threonine concentration in G. pulex (6h, C1= 0.1 mg/L): 787 ± 22 µg/g
L-Tryptophan concentration in G. pulex (6h, C1= 0.1 mg/L): 97 ± 16 µg/g
L-Tyrosine concentration in G. pulex (6h, C1= 0.1 mg/L): 301 ± 1 µg/g
L-Valine concentration in G. pulex (6h, C1= 0.1 mg/L): 601 ± 9 µg/g
L-aspartic acid concentration in G. pulex (6h, C1= 0.1 mg/L): 43.2 ± 2 µg/g
NADH concentration in G. pulex (6h, C1= 0.1 mg/L): 7.7 ± 1 µg/g
Taurine concentration in G. pulex (6h, C1= 0.1 mg/L): 10516 ± 434 µg/g
Thymidine concentration in G. pulex (6h, C1= 0.1 mg/L): 3697 ± 180 µg/g
Trehalose concentration in G. pulex (6h, C1= 0.1 mg/L): 259 ± 8 µg/g
Uridine concentration in G. pulex (6h, C1= 0.1 mg/L): 723 ± 21 µg/g
